Measured values taken from patent US10322131B2, “Hydroxyacid derivatives, a process for their preparation and pharmaceutical compositions containing them” (LES LABORATOIRES SERVIER, priority 2015, dated 2019).

Columns and labels:
[1] = molecular target: Mcl-1 protein (Homo sapiens, UniProt Q07820); experiment: Inhibition of Mcl-1 by the fluorescence polarisation technique; format: binding; details: fluorescence polarisation test; Fluorescein labelled ligand 1 nM, Mcl-1 protein 5 nM, ~2 hours at r.t.; read-out: IC50 (M) Mcl-1 FP
Procedure: The relative binding potency of each compound was determined via Fluorescence Polarisation (FP). The method utilised a Fluorescein labelled ligand (Fluorescein-βAla-Ahx-A-REIGAQLRRMADDLNAQY-OH; mw 2,765) which binds to the Mcl-1 protein (such that Mcl-1 corresponds to the UniProtKB® primary accession number: Q07820) leading to an increased anisotropy measured in milli-polarisation (mP) units using a reader. The addition of a compound which binds competitively to the same site as the ligand will result in a greater proportion of unbound ligand in the system indicated by a decrease in mP units.
An 11 point serial dilution of each compound was prepared in DMSO and 2 μl transferred into flat bottomed, low binding, 384-well plate (final DMSO concentration 5%). 38 μl of buffer (10 mM 4-(2-hydroxyethyl)-1-piperazineethanesulfonic acid [HEPES], 150 mM NaCl, 0.05% Tween 20, pH 7.4), containing the Fluorescein labelled ligand (final concentration 1 nM) and Mcl-1 protein (final concentration 5 nM) was then added.
Assay plates were incubated ˜2 hours at r.t. before FP was measured on a Biomek Synergy2 reader (Ex. 528 nm, Em. 640 nm, Cut off 510 nm) and mP units calculated. The binding of increasing doses of test compound was expressed as a percentage reduction in mP compared to a window established between ‘5% DMSO only’ and ‘100% inhibition’ controls. 11-point dose response curves were plotted with XL-Fit software using a 4-Parameter Logistic Model (Sigmoidal Dose-Response Model) and the inhibitory concentrations that gave a 50% reduction in mP (IC50) were determined.

[2] = test system: H929 cells; experiment: In vitro cytotoxicity (MTT) on H929 multiple myeloma tumour line; format: cell-based; details: Homo sapiens, NCI-H929, exposed 48 hours, Microculture Tetrazolium Assay
Procedure: The cytotoxicity studies were carried out on the H929 multiple myeloma tumour line.
The cells are distributed onto microplates and exposed to the test compounds for 48 hours.
The cell viability is then quantified by a colorimetric assay, the Microculture Tetrazolium Assay (Cancer Res., 1987, 47, 939-942).

Sequence of Mcl-1 protein (Q07820 whole entry): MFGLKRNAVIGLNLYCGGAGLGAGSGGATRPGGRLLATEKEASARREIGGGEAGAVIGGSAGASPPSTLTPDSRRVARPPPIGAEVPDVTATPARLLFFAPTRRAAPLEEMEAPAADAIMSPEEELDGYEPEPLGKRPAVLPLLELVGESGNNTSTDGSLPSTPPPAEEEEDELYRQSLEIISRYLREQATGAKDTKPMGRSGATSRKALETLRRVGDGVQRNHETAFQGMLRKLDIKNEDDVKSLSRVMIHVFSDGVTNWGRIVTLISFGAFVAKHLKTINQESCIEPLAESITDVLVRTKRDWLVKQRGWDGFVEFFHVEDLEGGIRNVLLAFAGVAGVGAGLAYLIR

**Q.** Which IC50 [1] does the source give for `Cc1c(-c2c(-c3ccc(F)cc3)sc3ncnc(OC(Cc4ccccc4OCc4ccnc(-c5cccc(OCCN(CCO)CCO)c5)n4)C(=O)O)c23)ccc(OCCN2CCN(C)CC2)c1Cl` [Example 49, (2R)-3-(2-{[2-(3-{2-[bis(2-hydroxyethyl)amino]ethoxy}phenyl)pyrimidin-4-yl]methoxy}phenyl)-2-{[(5Sa)-5-{3-chloro-2-methyl-4-[2-(4-methylpiperazin-1-yl)ethoxy]phenyl}-6-(4-fluorophenyl)thieno[2,3-d]pyrimidin-4-yl]oxy}propanoic acid] here?
**A.** 4.65e-09 M

**Q.** With `COCCN(CCOC)C(=O)OCc1cccc(-c2nccc(COc3ccccc3CC(Oc3ncnc4sc(-c5ccc(F)cc5)c(-c5ccc(OCCN6CCN(C)CC6)c(Cl)c5C)c34)C(=O)O)n2)c1` [Example 45, (2R)-3-[2-({2-[3-({[bis(2-methoxyethyl)carbamoyl]oxy}methyl)phenyl]pyrimidin-4-yl}methoxy)phenyl]-2-{[(5Sa)-5-{3-chloro-2-methyl-4-[2-(4-methylpiperazin-1-yl)ethoxy]phenyl}-6-(4-fluorophenyl)thieno[2,3-d]pyrimidin-4-yl]oxy}propanoic acid] as the compound, how does the IC50 [2] read?
**A.** 4.58 nM

**Q.** What about the IC50 [1] of the same compound?
**A.** 3.2e-09 M

**Q.** For “(2R)-2-{[(5Sa)-5-{2,3-dimethyl-4-[2-(4-methylpiperazin-1-yl)ethoxy]phenyl}-6-(4-fluorophenyl)thieno[2,3-d]pyrimidin-4-yl]oxy}-3-{2-[(2-{3-[({[2-(piperidin-1-yl)ethyl]carbamoyl}oxy)methyl]phenyl}pyrimidin-4-yl)methoxy]phenyl}propanoic acid [Example 50]”, which IC50 [1] is on record?
**A.** 6.6e-09 M

**Q.** How did the IC50 [1] turn out when `Cc1c(-c2c(-c3ccc(F)cc3)sc3ncnc(OC(Cc4ccccc4OCc4ccnc(-c5ccc(OCCN6CCOCC6)cc5)n4)C(=O)O)c23)ccc(OCCN2CCN(C)CC2)c1Cl` [Example 56, (2R)-2-{[(5Sa)-5-{3-chloro-2-methyl-4-[2-(4-methylpiperazin-1-yl)ethoxy]phenyl}-6-(4-fluorophenyl)thieno[2,3-d]pyrimidin-4-yl]oxy}-3-{2-[(2-{4-[2-(morpholin-4-yl)ethoxy]phenyl}pyrimidin-4-yl)methoxy]phenyl}propanoic acid] was run?
**A.** 4.75e-09 M

**Q.** For `Cc1c(-c2c(-c3ccc(F)cc3)sc3ncnc(OC(Cc4ccccc4OCc4ccnc(-c5cccc(OCCN6CCOCC6)c5)n4)C(=O)O)c23)ccc(OCCN2CCN(C)CC2)c1Cl` [Example 51, (2R)-2-{[(5Sa)-5-{3-chloro-2-methyl-4-[2-(4-methylpiperazin-1-yl)ethoxy]phenyl}-6-(4-fluorophenyl)thieno[2,3-d]pyrimidin-4-yl]oxy}-3-{2-[(2-{3-[2-(morpholin-4-yl)ethoxy]phenyl}pyrimidin-4-yl)methoxy]phenyl}propanoic acid], which IC50 [1] is on record?
**A.** 4.15e-09 M

**Q.** Which IC50 [1] does the source give for `Cc1c(-c2c(-c3ccc(F)cc3)sc3ncnc(OC(Cc4ccccc4OCc4ccnc(-c5cncc(CO)c5)n4)C(=O)O)c23)ccc(OCCN2CCN(C)CC2)c1Cl` [Example 79, (2R)-2-{[(5Sa)-5-{3-chloro-2-methyl-4-[2-(4-methylpiperazin-1-yl)ethoxy]phenyl}-6-(4-fluorophenyl)thieno[2,3-d]pyrimidin-4-yl]oxy}-3-[2-({2-[5-(hydroxymethyl)pyridin-3-yl]pyrimidin-4-yl}methoxy)phenyl]propanoic acid] here?
**A.** 7.6e-09 M

**Q.** How did the IC50 [1] turn out when `Cc1c(-c2c(-c3ccc(F)cc3)sc3ncnc(OC(Cc4ccccc4OCc4ccnc(-c5cccc(OCCN(C)C)c5)n4)C(=O)O)c23)ccc(OCCN2CCN(C)CC2)c1Cl` [Example 52, (2R)-2-{[(5Sa)-5-{3-chloro-2-methyl-4-[2-(4-methylpiperazin-1-yl)ethoxy]phenyl}-6-(4-fluorophenyl)thieno[2,3-d]pyrimidin-4-yl]oxy}-3-{2-[(2-{3-[2-(dimethylamino)ethoxy]phenyl}pyrimidin-4-yl)methoxy]phenyl}propanoic acid] was run?
**A.** 3.7e-09 M

**Q.** For `CCOC(=O)OC(C)OC(=O)C(Cc1ccccc1OCc1ccnc(-c2cccc(OC(COC)COC)c2)n1)Oc1ncnc2sc(-c3ccc(F)cc3)c(-c3ccc(OCCN4CCN(C)CC4)c(Cl)c3C)c12` [Example 69, 1-[(ethoxycarbonyl)oxy]ethyl (2R)-2-{[(5Sa)-5-{3-chloro-2-methyl-4-[2-(4-methylpiperazin-1-yl)ethoxy]phenyl}-6-(4-fluorophenyl)thieno[2,3-d]pyrimidin-4-yl]oxy}-3-{2-[(2-{3-[(1,3-dimethoxypropan-2-yl)oxy]phenyl}pyrimidin-4-yl)methoxy]phenyl}propanoate], which IC50 [1] is on record?
**A.** 7.6e-08 M

**Q.** How did the IC50 [1] turn out when `COCCOCCOCCOc1cccc(-c2nccc(COc3ccccc3CC(Oc3ncnc4sc(-c5ccc(F)cc5)c(-c5ccc(OCCN6CCN(C)CC6)c(Cl)c5C)c34)C(=O)O)n2)c1` [Example 48, (2R)-2-{[(5Sa)-5-{3-chloro-2-methyl-4-[2-(4-methylpiperazin-1-yl)ethoxy]phenyl}-6-(4-fluorophenyl)thieno[2,3-d]pyrimidin-4-yl]oxy}-3-(2-{[2-(3-{2-[2-(2-methoxyethoxy)ethoxy]ethoxy}phenyl)pyrimidin-4-yl]methoxy}phenyl)propanoic acid] was run?
**A.** 3.85e-09 M

**Q.** How did the IC50 [1] turn out when `Cc1c(-c2c(-c3ccc(F)cc3)sc3ncnc(OC(Cc4ccccc4OCc4ccnc(-c5ccc(OCC6COC(C)(C)O6)cc5)n4)C(=O)O)c23)ccc(OCCN2CCN(C)CC2)c1Cl` [Example 55, (2R)-2-{[(5Sa)-5-{3-chloro-2-methyl-4-[2-(4-methylpiperazin-1-yl)ethoxy]phenyl}-6-(4-fluorophenyl)thieno[2,3-d]pyrimidin-4-yl]oxy}-3-{2-[(2-{4-[(2,2-dimethyl-1,3-dioxolan-4-yl)methoxy]phenyl}pyrimidin-4-yl)methoxy]phenyl}propanoic acid] was run?
**A.** 6.35e-09 M

**Q.** For `Cc1c(-c2c(-c3ccc(F)cc3)sc3ncnc(OC(Cc4ccccc4OCc4ccnc(-c5ccc(OCCOCCOCCO)cc5)n4)C(=O)O)c23)ccc(OCCN2CCN(C)CC2)c1Cl` [Example 54, (2R)-2-{[(5Sa)-5-{3-chloro-2-methyl-4-[2-(4-methylpiperazin-1-yl)ethoxy]phenyl}-6-(4-fluorophenyl)thieno[2,3-d]pyrimidin-4-yl]oxy}-3-(2-{[2-(4-{2-[2-(2-hydroxyethoxy)ethoxy]ethoxy}phenyl)pyrimidin-4-yl]methoxy}phenyl)propanoic acid], which IC50 [1] is on record?
**A.** 4.6e-09 M

**Q.** How did the IC50 [1] turn out when `Cc1c(-c2c(-c3ccc(F)cc3)sc3ncnc(OC(Cc4ccccc4OCc4ccnc(-c5ccc(OCCN(CCO)CCO)cc5)n4)C(=O)O)c23)ccc(OCCN2CCN(C)CC2)c1Cl` [Example 53, (2R)-3-(2-{[2-(4-{2-[bis(2-hydroxyethyl)amino]ethoxy}phenyl)pyrimidin-4-yl]methoxy}phenyl)-2-{[(5Sa)-5-{3-chloro-2-methyl-4-[2-(4-methylpiperazin-1-yl)ethoxy]phenyl}-6-(4-fluorophenyl)thieno[2,3-d]pyrimidin-4-yl]oxy}propanoic acid] was run?
**A.** 4.65e-09 M

**Q.** For `Cc1c(-c2c(-c3ccc(F)cc3)sc3ncnc(OC(Cc4ccccc4OCc4ccnc(-c5cnc(CO)nc5)n4)C(=O)O)c23)ccc(OCCN2CCN(C)CC2)c1Cl` [Example 82, (2R)-2-{[(5Sa)-5-{3-chloro-2-methyl-4-[2-(4-methylpiperazin-1-yl)ethoxy]phenyl}-6-(4-fluorophenyl)thieno[2,3-d]pyrimidin-4-yl]oxy}-3-(2-{[2′-(hydroxymethyl)-2,5′-bipyrimidin-4-yl]methoxy}phenyl)propanoic acid], which IC50 [1] is on record?
**A.** 7.7e-09 M
